Laboratory results taken from ChEMBL document CHEMBL1158392, “Synthesis and biological evaluation of abietic acid derivatives” (Eur J Med Chem, 2009).
≈ marks a conversion by molar mass, not a printed value. Calls of active or inactive are those of the source. The rule behind the calls is not given here.

Legend:
[1] = test system: Aspergillus niger; test: Antifungal activity against Aspergillus niger ATCC 10124 upto 100 ug/mL after 48 hrs by CLSI M38-A broth dilution method; assay type: functional, organism-based
[2] = Cytotoxicity against african green monkey Vero cells after 48 hrs by MTT assay; assay type: cell-based; details: chlorocebus sabaeus
[3] = test system: HeLa; test: Cytotoxicity against human HeLa cells; assay type: cell-based
[4] = test system: Pichia kudriavzevii; test: Antifungal activity against Candida krusei ATCC 6258 upto 100 ug/mL after 24 hrs by AFST-EUCAST method; assay type: functional, organism-based
[5] = test system: Aspergillus terreus; test: Antifungal activity against Aspergillus terreus CDC 317 upto 100 ug/mL after 48 hrs by CLSI M38-A broth dilution method; assay type: functional, organism-based
[6] = test system: HeLa; test: Cytotoxicity against human HeLa cells after 48 hrs by MTT assay; assay type: functional
[7] = test system: Human alphaherpesvirus 1; test: Antiviral activity against HSV1 infected in human HeLa cells assessed as viral reduction factor preincubated for 0.5 hrs before infection measured after 36 hrs by end point titration technique relative to control; assay type: functional
[8] = test system: Aspergillus flavus; test: Antifungal activity against Aspergillus flavus ATCC 204304 upto 100 ug/mL after 48 hrs by CLSI M38-A broth dilution method; assay type: functional, organism-based
[9] = test system: Aspergillus fumigatus; test: Antifungal activity against Aspergillus fumigatus ATCC 204305 upto 100 ug/mL after 48 hrs by CLSI M38-A broth dilution method; assay type: functional, organism-based
[10] = test system: Candida parapsilosis; test: Antifungal activity against Candida parapsilosis ATCC 22019 upto 100 ug/mL after 24 hrs by AFST-EUCAST method; assay type: functional, organism-based
[11] = Selectivity index, ratio of CC50 for african green monkey Vero cells to CC50 for human HeLa cells; assay type: functional
[12] = test system: Candida albicans; test: Antifungal activity against Candida albicans ATCC 10231 upto 100 ug/mL after 24 hrs by AFST-EUCAST method; assay type: functional, organism-based
[13] = test system: Candida tropicalis; test: Antifungal activity against Candida tropicalis CECT 11901 upto 100 ug/mL after 24 hrs by AFST-EUCAST method; assay type: functional, organism-based
[14] = test system: Human alphaherpesvirus 1; test: Antiviral activity against HSV1 infected in human HeLa cells assessed as maximum dose required for highest viral reduction factor preincubated for 0.5 hrs before infection measured after 36 hrs by end point titration technique; assay type: functional
[15] = test system: Aspergillus fumigatus; test: Antifungal activity against Aspergillus fumigatus ATCC 204305 after 48 hrs by CLSI M38-A broth dilution method; assay type: functional; details: ATCC 204305, 48 h

| SMILES | MIC [1] | MIC [4] | MIC [5] | MIC [8] | MIC [9] | MIC [10] | MIC [12] | MIC [13] | MIC [15] [µg/mL] | CC50 at 48 h [2] [µg/mL] | CC100 [3] [µg/mL] | CC50 [6] [µg/mL] | Activity [7] | Selectivity Index [11] | Activity [14] [µg/mL] |
| --- | --- | --- | --- | --- | --- | --- | --- | --- | --- | --- | --- | --- | --- | --- | --- |
| COC(=O)[C@]1(C)CCC[C@@]2(C)[C@H]1CC=C1C=C(C(C)C)CC[C@@H]12 [METHYL ABIETATE] | inactive | inactive | inactive | inactive | inactive | inactive | inactive | inactive |  | 49.4 (≈ 156 µM) | 50 | 3.6 (≈ 11.4 µM) | 10 | 13.7 | 6.25 |
| CC[C@]1(O)C[C@H]2CN(CCc3c([nH]c4ccccc34)[C@@](C(=O)OC)(c3cc4c(cc3OC)N(C=O)[C@H]3[C@@](O)(C(=O)OC)[C@H](OC(C)=O)[C@]5(CC)C=CCN6CC[C@]43[C@@H]65)C2)C1 [VINCRISTINE] |  |  |  |  |  |  |  |  |  | 1.1 (≈ 1.33 µM) |  | 0.05 (≈ 0.0606 µM) |  | 22 |  |
| CC(C)=C1CCC2=C(CC[C@H]3[C@](C)(C=O)CCC[C@]23C)C1 | inactive | inactive | inactive | inactive | inactive | inactive | inactive | inactive |  | 55.3 (≈ 193 µM) | > 100 | 33.4 (≈ 117 µM) | inactive | 1.6 |  |
| Nc1nc2c(ncn2COCCO)c(=O)[nH]1 [ACYCLOVIR] |  |  |  |  |  |  |  |  |  |  | > 600 |  | 10 |  | 6 |
| CC(C)C1=CC2=CC[C@@H]3[C@](C)(CCC[C@@]3(C)C=O)[C@H]2CC1 | inactive | inactive | inactive | inactive |  | inactive | inactive | inactive | 50 (≈ 175 µM) | 31.5 (≈ 110 µM) | > 50 | 5.6 (≈ 19.5 µM) | 10 | 5.6 | 12.5 |

Further lines, with some results ahead:

| MIC [1] | MIC [4] | MIC [5] | MIC [8] | MIC [9] | MIC [10] | MIC [12] | MIC [13] | MIC [15] [µg/mL] | SMILES | CC50 at 48 h [2] [µg/mL] | CC100 [3] [µg/mL] | CC50 [6] [µg/mL] | Activity [7] | Selectivity Index [11] | Activity [14] [µg/mL] |
| --- | --- | --- | --- | --- | --- | --- | --- | --- | --- | --- | --- | --- | --- | --- | --- |
| inactive | inactive | inactive | inactive | inactive | inactive | inactive | inactive |  | CC(C)C1=CC2=CC[C@@H]3[C@](C)(CCC[C@@]3(C)C(=O)O)[C@H]2CC1 [ABIETIC ACID] | 52.5 (≈ 174 µM) | > 100 | 14.9 (≈ 49.3 µM) | inactive | 3.5 |  |
| inactive | inactive | inactive | inactive | inactive | inactive | inactive | inactive |  | CC(C)=C1CCC2=C(CC[C@H]3[C@](C)(CO)CCC[C@]23C)C1 | 20.2 (≈ 70 µM) | 100 | 19.7 (≈ 68.3 µM) | inactive | 1 |  |
| inactive | inactive | inactive | inactive | inactive | inactive | inactive | inactive |  | CC(C)=C1CCC2=C(CC[C@H]3[C@](C)(C(=O)O)CCC[C@]23C)C1 | 43.9 (≈ 145 µM) | > 100 | 53.1 (≈ 176 µM) | 10 | 0.8 | 100 |
| inactive | inactive | inactive | inactive | inactive | inactive | inactive | inactive |  | COC(=O)[C@]1(C)CCC[C@]2(C)C3=C(CC[C@@H]12)CC(=C(C)C)CC3 | 19.2 (≈ 60.7 µM) | 100 | 46.6 (≈ 147 µM) | inactive | 0.4 |  |
| inactive | inactive | inactive | inactive | inactive | inactive | inactive | inactive |  | CC(C)C1=CC2=CC[C@H]3[C@](C)(CO)CCC[C@]3(C)[C@H]2CC1 | 12.7 (≈ 44 µM) | 25 | 5.2 (≈ 18 µM) | 10 | 2.4 | 6.25 |
